Data set [1] relates to perfused rat pancreas. The experiment in a line: Rat pancreas perfusion, glucagon output. On the set-up: species or system rat (Wistar). Particulars: bolus 10 mM L-arginine at end of experiment. As for the experimental part:
Non-fasted rats were anesthetized by a subcutaneous injection of a balanced mix of hypnorm and midazolam (0.3 mL/100 g body weight). Rats were placed on a heated operating table (37 °C) and the abdomen were opened. Blood vessels were tied off before removing the large and small intestines, the stomach, and the spleen. Then, the kidneys were ligated. […] The perfusion buffer was a modified Krebs-Ringer bicarbonate buffer with 5% (w/v) dextran T-70 (Pharmacosmos, Holbaek, Denmark), 0.1% (w/v) BSA (fraction V), 3.5 mM glucose and 3 mM vamin (Fresenius Kabi, Copenhagen, Denmark), pH adjusted to 7.4. […] Once perfusion of the pancreas was established, a catheter was inserted in the vena portae to collect the venous effluent and the rat was sacrificed by perforation of the diaphragm. After a 30-minute equilibration period, samples were collected every minute for the duration of the protocol. […] 10 mM L-Arginine was used as a positive control. Collected samples were immediately transferred on ice and stored at −20 °C until hormone analysis. Glucagon, insulin, and somatostatin concentrations in venous effluents were quantified by use of validated in-house radioimmunoassays (RIA) as previously described[36] (see below). Statistical analysis were performed where appropriate using one-way analysis of variance (ANOVA) with Dunnett’s post-test. Statistical significance was taken as p < 0.05.
Glucagon concentration in perfusion samples were measured by a validated in-house RIAs using the 4305 antibody, which reacts with the C-terminal epitope of glucagon[36] and no other cleavage products of pro-glucagon. Insulin concentrations were measured with the 2006 antibody, which measures all isoforms of rat insulin. […] Assay sensitivity was <1 pmol/L ( < 5 pmol/L for insulin detection), allowing reliable measurements of increments of at least 25 fmol/min.
Data analysis were performed in GraphPad Prism (v.9.4.1). Statistical analysis were performed using two-way repeated measure analysis of variance (ANOVA) with Šidák test for isolated islets glucagon secretion and one-way repeated measure ANOVA with Dunnett's test for rat pancreas perfusion experiments. Statistical significance was taken as p < 0.05.

In data set [2] the target is T1, human SSTR3 (Homo sapiens, UniProt P32745).
T1 construct: Tango cassette (PRESTO-Tango template of Kroeze et al. 2015); Bryan Roth (Addgene) Addgene kit # 1000000068; host or cells: HTLA cells
T1 sequence (P32745 whole entry): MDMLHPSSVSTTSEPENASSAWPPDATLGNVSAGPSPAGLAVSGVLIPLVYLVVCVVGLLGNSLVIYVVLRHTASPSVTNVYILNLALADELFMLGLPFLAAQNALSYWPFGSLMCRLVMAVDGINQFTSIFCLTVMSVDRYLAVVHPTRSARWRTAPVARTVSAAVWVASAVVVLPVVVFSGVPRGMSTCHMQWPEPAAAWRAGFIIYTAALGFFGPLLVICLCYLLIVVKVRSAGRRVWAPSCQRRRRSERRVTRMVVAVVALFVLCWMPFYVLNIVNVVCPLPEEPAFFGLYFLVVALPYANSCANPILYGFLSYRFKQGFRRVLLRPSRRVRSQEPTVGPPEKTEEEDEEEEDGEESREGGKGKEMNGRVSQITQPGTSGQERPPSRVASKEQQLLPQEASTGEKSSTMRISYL
The experiment in a line: PRESTO-Tango β-arrestin recruitment assay, hSSTR3. In kind it is cell-based. The source says: HTLA cells were given by Prof.
The assay was done as described in ref. [12].
(In general: Activated receptors often draw arrestin, which recruitment assays turn into a signal.)

In data set [3] the target is T2, human SSTR2 (Gi1) (Homo sapiens, UniProt P30874).
T2 construct: host or cells: HEK293T cells
T2 sequence (P30874 whole entry): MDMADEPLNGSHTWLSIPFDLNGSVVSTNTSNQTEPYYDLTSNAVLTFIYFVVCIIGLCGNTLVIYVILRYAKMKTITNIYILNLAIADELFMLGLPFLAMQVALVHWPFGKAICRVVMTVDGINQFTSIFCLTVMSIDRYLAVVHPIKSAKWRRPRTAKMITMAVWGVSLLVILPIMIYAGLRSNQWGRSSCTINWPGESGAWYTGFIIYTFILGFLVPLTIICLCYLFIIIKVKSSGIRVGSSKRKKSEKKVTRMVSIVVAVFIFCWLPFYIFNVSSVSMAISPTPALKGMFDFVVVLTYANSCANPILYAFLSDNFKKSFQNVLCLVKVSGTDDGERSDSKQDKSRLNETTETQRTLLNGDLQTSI
The data set can be described thus: G protein activation (BRET dissociation) assay, Gi1 at hSSTR2.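 Further: percent of the maximal response to the reference somatostatin agonist.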 In kind it is cell-based.
Experimental: (§1) HEK293T cells were seeded onto 6-well plates at a density of 750,000 cells/well. […] 16 to 24 hours post-transfection, HEK293T cells were seeded onto white 96 well plate (PerkinElmer) coated with poly-L-lysine (PLL) at a density of 40,000 cells/well and were allowed to grow overnight. On the day of assay, cells were washed once with phosphate-based saline (PBS) and 80 µL of assay buffer which composed of PBS with 0.5 mM MgCl2 and 0.1% glucose, pH 7.4, were added onto each well. 10 µL of Nluc luciferase substrate furimazine (Promega) were added onto each well and incubated for 3 minutes.
(§2) The net BRET ratio was determined by subtracting the BRET ratio of drugs with the BRET ratio of vehicle control. Net BRET ratio over time was then plotted using GraphPad Prism (v.9.4.1), and the area-under-curve of net BRET ratio over time course for each ligand concentration tested were then determined and plotted against log(concentration) of drugs tested. […] Concentration response curves were fitted with a 4-parameter logistic Eq. (1) using GraphPad Prism (v.9.4.1):1 Y=Emin+(Emax−Emin)/1+10^logEC50−X×Hillslope

The target in data set [4] is T3, human SSTR2 (Gi2) (Homo sapiens, UniProt P30874).
T3 construct: host or cells: HEK293T cells
T3 sequence (P30874 whole entry): as above
The experiment in a line: G protein activation (BRET dissociation) assay, Gi2 at hSSTR2.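 Further: percent of the maximal response to the reference somatostatin agonist.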 The format is cell-based. On the technique in general: Bioluminescence resonance energy transfer reports proximity on the nanometre scale.
Experimental: as §1, §2

In data set [5] the target is T4, human SSTR2 (Gi3) (Homo sapiens, UniProt P30874).
T4 construct: host or cells: HEK293T cells
T4 sequence (P30874 whole entry): as above
The experiment in a line: G protein activation (BRET dissociation) assay, Gi3 at hSSTR2.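 Further: percent of the maximal response to the reference somatostatin agonist.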 The format is cell-based.
Experimental: as §1, §2

The target of data set [6] is T5, human SSTR2 (GoB) (Homo sapiens, UniProt P30874).
T5 construct: host or cells: HEK293T cells
T5 sequence (P30874 whole entry): as above
The experiment in a line: G protein activation (BRET dissociation) assay, GoB at hSSTR2.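 Further: percent of the maximal response to the reference somatostatin agonist.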 The format is cell-based.
Experimental: as §1, §2

Data set [7] addresses human SSTR2 (Homo sapiens, UniProt P30874). The experiment in a line: PRESTO-Tango β-arrestin recruitment assay, hSSTR2. Particulars: read-out: Emax ± S.E.M., Table S1; % of maximal response relative to SS-14.
Experimental: HTLA cells were given by Prof. Bryan Roth (University of North Carolina, Chapel Hill, US) and were maintained in Dulbecco’s modified Eagle’s medium (DMEM) supplemented with 10% Fetal Bovine Serum (FBS) (Biowest) and 100 U/mL penicillin and 100 µg/mL streptomycin at 37 °C in a humidified incubator supplemented with 5% CO2. Constant selective pressure for tTA-dependent luciferase reporter and a β-arrestin 2 tobacco etch virus protease fusion gene were maintained with the addition of 100 µg/mL hygromycin B and 2 µg/ml puromycin (Tango growth medium).
Briefly, HTLA cells (1 million cells/well) were seeded in 6-well plates in Tango growth medium, and incubated overnight. On day 2, medium was changed to Tango growth medium without hygromycin B and puromycin. Cells were then transfected using Polyfect (Qiagen) according to manufacturer’s protocol. On day 3, 15,000 cells in 40 µL DMEM supplemented with 1% dialyzed FBS (Tango assay medium) per well were seeded in poly-D-lysine-coated white clear-bottom 384 well plates (Corning) and incubated overnight. On day 4, the Tango assay medium was changed and 10 µL of each of the peptide was added at 5x final concentration. The peptides were resuspended in HBSS with 20 mM HEPES, 1 mM of CaCl2, 1 mM of MgCl2, pH adjusted to 7.4 with 1 M NaOH (Tango assay buffer), which was supplemented with 0.1% BSA (Tango ligand buffer). After overnight incubation, on day 5, the medium and the compounds were removed from the cells and 20 µL of 1:20 dilution of BrightGlo (Promega) in Tango assay buffer supplemented with 0.01% pluronic F68 was added to the cells. Plates were incubated for 20 minutes in the dark at room temperature. Luminescence was measured on a Molecular Devices SpectraMax iD5 (Molecular Devices) with each well integrated for 1 second.
Data set [8] deals with human SSTR2 (GoA) (Homo sapiens, UniProt P30874). The experiment in a line: G protein activation (BRET dissociation) assay, GoA at hSSTR2.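 Further: percent of the maximal response to the reference somatostatin agonist.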 Particulars: read-out: Emax ± S.E.M.
human SSTR2 (GoA), sequence (P30874 whole entry): as above
Experimental: as §1, §2
Data set [9] deals with mock (pcDNA) transfected HEK293T cells. The experiment in a line: GoA dissociation in mock (pcDNA) transfected HEK293T cells. The format is cell-based. Particulars: Fig. S6B.
Experimental: The following protocol was adopted from Masuho et al., 2015[33]. HEK293T cells were seeded onto 6-well plates at a density of 750,000 cells/well. […] 16 to 24 hours post-transfection, HEK293T cells were seeded onto white 96 well plate (PerkinElmer) coated with poly-L-lysine (PLL) at a density of 40,000 cells/well and were allowed to grow overnight. On the day of assay, cells were washed once with phosphate-based saline (PBS) and 80 µL of assay buffer which composed of PBS with 0.5 mM MgCl2 and 0.1% glucose, pH 7.4, were added onto each well. 10 µL of Nluc luciferase substrate furimazine (Promega) were added onto each well and incubated for 3 minutes.
Crude C. geographus venom was subjected to reversed-phase high performance liquid chromatography (RP-HPLC). Pools consisting of 5 adjacent fractions were then tested for their ability to induce GoA dissociation at the hSSTR2. […] Error bars represent means ± S.E.M. of only one technical experiment in duplicate.
Error bars represent means ± S.E.M. of only one technical experiment in duplicate.
For data set [10], the target named is zebrafish sstr2a, Tango construct (zebrafish (Danio rerio)) (UniProt E7FDL0).
In data set [11] the target is zebrafish sstr2b, Tango construct (zebrafish (Danio rerio)).
Data set [12] has as its system plasma glucose. Particulars: compared with GLP-1; cited from earlier work. The source says:
Another example of a doppelganger peptide with drug-like properties that targets glucose homeostasis is exendin-4, a glucagon-like peptide-1 (GLP-1) peptide derived from the salivary gland of the Gila monster, Heloderma suspectum. […] Following successful clinical trials, exendin-4 (exenatide) entered the market in 2005 as a first-in-class incretin-mimetic for the treatment of type 2 diabetes (T2D). Since then, several other GLP-1 analogs have been devel ...

Ends that are not written are not given here.

The text below walks through data of paper PMC11336141.

human SSTR2, sequence (P30874 whole entry): as above

With `N=C(N)NCCC[C@H](N)C(=O)O` [L-arginine, reference compound], in [1], the “effect on glucagon levels (positive control)” value was “revert glucagon levels”.
For orientation: Emax means the size of the effect at its maximum, as opposed to the concentration needed. `C[C@@H](O)[C@@H]1NC(=O)[C@H](CCCCN)NC(=O)[C@@H](Cc2c[nH]c3ccccc23)NC(=O)[C@H](Cc2ccccc2)NC(=O)[C@@H](NC(=O)[C@H](N)Cc2ccccc2)CSSC[C@@H](C(=O)N[C@H](CO)[C@@H](C)O)NC1=O` [Octreotide, octreotide, reference compound]: the Emax was 108 ± 13.4% in [2]; 84.2 ± 4.44% in data set [3]; 64 ± 2.97% in data set [4]; 77.5 ± 3.67% in data set [5]; 101 ± 2.64% in [6]; 94 ± 1.4% in [7]. In addition, in data set [8], the maximal response (Emax) amounted to 96.2 ± 4.77%.
“SST-14 (AGCKNFFWKTFTSC; not fully specified (bridges); ends and bridges not checked; UniProt P61278 103-116, looked up)”: the “pcDNA/GoA response, Mean” value in data set [9] (at pEC20, data row 1) was 0.005611; in data set [9] (at pEC20, data row 2), 0.02323; in data set [9] (at pEC20, data row 3), 0.002971; in data set [9] (at pEC50, data row 1), 0; in data set [9] (at pEC50, data row 2), 0.0008161; in [9] (at pEC50, data row 3), 0.
For the compound “Somatostatin-14 (from UniProt P61278 103-116) (peptide)”, the EC50, PRESTO-Tango β-arrestin recruitment assay in data set [10] came out at 28.6 nM; in [11], 132 nM.
Regarding exendin-4, in data set [12], the “in vivo half-life in words” value is listed as “significantly longer in vivo half-life than GLP-1” and the “potency in lowering plasma glucose in words” value is “much greater potency in lowering plasma glucose”.
